Data published in patent US5155041A, “Culture of Bacillus subtilis” (Korea Research Institute of Chemical Technology, priority 1990, dated 1992).
In brackets after ≈: the same amount, converted by molar mass. Where two headings read alike, the source gives them in different places.

Tests used:
[1] = tested on: Cercospora kikuchi; experiment: Minimum inhibitory concentration, agar dilution; format: cell-based
[2] = tested on: Trichophyton ruburum; experiment: Minimum inhibitory concentration, agar dilution; format: cell-based
[3] = tested on: Rhizopus sp.; experiment: Minimum inhibitory concentration, agar dilution; format: cell-based
[4] = tested on: Coccidioides immitis ATCC 34020; experiment: microbe, parasite or virus in culture; format: cell-based
[5] = tested on: Glomerella glycine; experiment: Minimum inhibitory concentration, agar dilution; format: cell-based
[6] = tested on: Fusarium roseum; experiment: microbe, parasite or virus in culture; format: cell-based
[7] = tested on: Microsporum gypseum; experiment: Minimum inhibitory concentration, agar dilution; format: cell-based
[8] = tested on: Asperillus fumigatus ATCC 164264; experiment: Minimum inhibitory concentration, agar dilution; format: cell-based
[9] = tested on: Trichophyton mentagrophytes ATCC 9533; experiment: Minimum inhibitory concentration, agar dilution; format: cell-based
[10] = tested on: Cladosporium carrionii ATCC 1624; experiment: Minimum inhibitory concentration, agar dilution; format: cell-based
[11] = tested on: Microsporum canis ATCC 11622; experiment: Minimum inhibitory concentration, agar dilution; format: cell-based
[12] = tested on: Epidermopyton floccosum ATCC 38486; experiment: Minimum inhibitory concentration, agar dilution; format: cell-based
[13] = tested on: Rhizoctonia solani; experiment: Minimum inhibitory concentration, agar dilution; format: cell-based
[14] = tested on: Phytophthora parasitica; experiment: Minimum inhibitory concentration, agar dilution; format: cell-based
[15] = tested on: Phytophthora capsici; experiment: Minimum inhibitory concentration, agar dilution; format: cell-based
[16] = tested on: Sporothrix schenkii ATCC 10212; experiment: Minimum inhibitory concentration, agar dilution; format: cell-based
[17] = tested on: Pyricularia oryzae; experiment: microbe, parasite or virus in culture; format: cell-based
[18] = tested on: Fusarium oxysporum; experiment: Minimum inhibitory concentration, agar dilution
[19] = tested on: mice; details: mouse, in vivo, ip; cited from earlier work
[20] = tested on: Botrytis cinerea; experiment: Minimum inhibitory concentration, agar dilution
[21] = Cercospora kikuchi, read-out: MIC
[22] = Trichophyton ruburum, read-out: MIC
[23] = Glomerella glycine, read-out: MIC
[24] = Asperillus fumigatus ATCC 164264, read-out: MIC
[25] = ATCC9533, Trichophyton mentagrophytes ATCC 9533, read-out: MIC
[26] = Cladophialophora carrionii, ATCC1624, Cladosporium carrionii ATCC 1624, read-out: MIC
[27] = Epidermopyton floccosum ATCC 38486, read-out: MIC
[28] = Rhizoctonia solani, read-out: MIC
[29] = Phytophthora nicotianae, Phytophthora parasitica, read-out: MIC
[30] = Phytophthora capsici, read-out: MIC
[31] = ATCC10212, Sporothrix schenkii ATCC 10212, read-out: MIC
[32] = Nannizzia gypsea, Microsporum gypseum, read-out: MIC
[33] = ATCC11622, Microsporum canis ATCC 11622, read-out: MIC

SMILES | MIC [1, 21] | MIC [2, 22] | MIC ([3]; Rhizopus sp., read-out: MIC) | MIC ([4]; ATCC34020) | MIC [5, 23] | MIC ([6]; Fusarium sambucinum) | MIC ([7]; Nannizzia gypsea) | MIC [8, 24] | MIC [9, 25] | MIC [10, 26] | MIC ([11]; Microsporum canis, ATCC11622) | MIC [12, 27] | MIC [13, 28] | MIC [14, 29] | MIC [15, 30] | MIC [16, 31] | MIC [17] | MIC [7, 32] | MIC [11, 33] | MIC [5] | further results
COC1=CC(=O)C[C@@H](C)[C@]12Oc1c(Cl)c(OC)cc(OC)c1C2=O [griseofulvin] | > 100 µg/mL | 1.5 µg/mL (≈ 4.25 µM) | > 100 µg/mL | > 100 µg/mL | > 100 µg/mL | > 100 µg/mL | 3 µg/mL (≈ 8.5 µM) | > 100 µg/mL | 3 µg/mL (≈ 8.5 µM) | > 100 µg/mL | 6 µg/mL (≈ 17 µM) | 1.5 µg/mL (≈ 4.25 µM) | 100 µg/mL (≈ 283 µM) | 25 µg/mL (≈ 70.9 µM) | 100 µg/mL (≈ 283 µM) | > 100 µg/mL | > 100 µg/mL |  |  |  | 
NC(=O)OCC(O)C(O)C(N)C(=O)NC(C(=O)O)C1OC(n2cc(CO)c(=O)[nH]c2=O)C(O)C1O (stereo not drawn) [polyoxin B] | > 100 µg/mL | > 100 µg/mL | > 100 µg/mL | > 100 µg/mL | > 100 µg/mL | > 100 µg/mL |  | > 100 µg/mL | > 100 µg/mL | > 100 µg/mL |  | > 100 µg/mL | > 100 µg/mL | > 100 µg/mL | > 100 µg/mL | > 100 µg/mL | > 100 µg/mL | > 100 µg/mL | > 100 µg/mL |  | 
C[C@@H]1C[C@@H]([C@H](O)CC2CC(=O)NC(=O)C2)C(=O)[C@@H](C)C1 [cycloheximide] |  |  |  |  |  | 25 µg/mL (≈ 88.9 µM) |  |  |  |  |  |  | 12 µg/mL (≈ 42.7 µM) |  | 0.8 µg/mL (≈ 2.84 µM) |  |  |  |  |  | MIC ([1]; Cercospora, read-out: MIC): 100 µg/mL (≈ 355 µM); MIC ([2]; Trichophyton, read-out: MIC): > 100 µg/mL; MIC ([3]; Rhizopus, read-out: MIC): > 100 µg/mL; MIC ([4]; ATCC34020, read-out: MIC): > 100 µg/mL; MIC ([5]; read-out: MIC): 25 µg/mL (≈ 88.9 µM); MIC ([7]; Nannizzia gypsea, read-out: MIC): > 100 µg/mL; MIC ([8]; read-out: MIC): 50 µg/mL (≈ 178 µM); MIC ([9]; Trichophyton mentagrophytes, ATCC9533, read-out: MIC): > 100 µg/mL; MIC ([10]; Cladophialophora carrionii, ATCC1624, read-out: MIC): > 100 µg/mL; MIC ([11]; Microsporum canis, ATCC11622, read-out: MIC): > 100 µg/mL; MIC ([12]; read-out: MIC): > 100 µg/mL; MIC ([14]; Phytophthora nicotianae, read-out: MIC): 1.5 µg/mL (≈ 5.33 µM); MIC ([16]; Sporothrix, ATCC10212, read-out: MIC): > 100 µg/mL; MIC ([17]; read-out: MIC): 3 µg/mL (≈ 10.7 µM)
C[C@@H]1[C@H](O)[C@@H](C)/C=C/C=C/CC/C=C/C=C/C=C/C=C/C(O[C@H]2O[C@H](C)[C@@H](O)[C@H](N)[C@@H]2O)CC2O[C@](O)(CC(O)C(O)CCC(O)CC(O)CC(O)CC(=O)O[C@H]1C)CC(O)C2C(=O)O (stereo partly drawn) [nystatin] |  |  |  | 6 µg/mL (≈ 6.48 µM) |  |  |  |  |  |  |  |  |  |  |  |  | 0.8 µg/mL (≈ 0.864 µM) |  |  | 6 µg/mL (≈ 6.48 µM) | MIC [1]: 12 µg/mL (≈ 13 µM); MIC [2]: 3 µg/mL (≈ 3.24 µM); MIC [3]: 100 µg/mL (≈ 108 µM); MIC ([6]; Fusarium roseum): 6 µg/mL (≈ 6.48 µM); MIC [7]: 3 µg/mL (≈ 3.24 µM); MIC [18]: 12 µg/mL (≈ 13 µM); MIC [8]: 12 µg/mL (≈ 13 µM); MIC [9]: 3 µg/mL (≈ 3.24 µM); MIC [10]: 50 µg/mL (≈ 54 µM); MIC [11]: 1.5 µg/mL (≈ 1.62 µM); MIC [12]: 1.5 µg/mL (≈ 1.62 µM); LD50 [19]: ~ 200 mg/kg; MIC [13]: 1.5 µg/mL (≈ 1.62 µM); MIC [20]: 1.5 µg/mL (≈ 1.62 µM); MIC [14]: 100 µg/mL (≈ 108 µM); MIC [15]: 100 µg/mL (≈ 108 µM); MIC [16]: 25 µg/mL (≈ 27 µM)
C[C@@H]1[C@H](O)[C@@H](C)/C=C/C=C/C=C/C=C/C=C/C=C/C=C/[C@H](O[C@@H]2O[C@H](C)[C@@H](O)[C@H](N)[C@@H]2O)C[C@@H]2O[C@](O)(C[C@@H](O)C[C@@H](O)[C@H](O)CC[C@@H](O)C[C@@H](O)CC(=O)O[C@H]1C)C[C@H](O)[C@H]2C(=O)O [amphotericin B] |  |  |  | 0.4 µg/mL (≈ 0.433 µM) |  | 6 µg/mL (≈ 6.49 µM) | 0.8 µg/mL (≈ 0.866 µM) |  |  |  | 1.5 µg/mL (≈ 1.62 µM) |  |  |  |  |  | 0.2 µg/mL (≈ 0.216 µM) |  |  | 25 µg/mL (≈ 27.1 µM) | MIC ([1]; Cercospora): 100 µg/mL (≈ 108 µM); MIC ([2]; Trichophyton): 0.8 µg/mL (≈ 0.866 µM); MIC ([3]; Rhizopus): 100 µg/mL (≈ 108 µM); MIC ([18]; Fusarium oxysporum): 50 µg/mL (≈ 54.1 µM); MIC [8]: 1.5 µg/mL (≈ 1.62 µM); MIC ([9]; Trichophyton mentagrophytes, ATCC9533): 0.8 µg/mL (≈ 0.866 µM); MIC ([10]; Cladophialophora carrionii, ATCC1624): 50 µg/mL (≈ 54.1 µM); MIC [12]: 0.4 µg/mL (≈ 0.433 µM); LD50 [19]: 88 mg/kg; MIC ([13]; Rhizoctonia solani): 3 µg/mL (≈ 3.25 µM); MIC ([20]; Botrytis cinerea): 3 µg/mL (≈ 3.25 µM); MIC ([14]; Phytophthora nicotianae): 50 µg/mL (≈ 54.1 µM); MIC ([15]; Phytophthora capsici): 25 µg/mL (≈ 27.1 µM); MIC ([16]; Sporothrix, ATCC10212): 50 µg/mL (≈ 54.1 µM)
C[C@H]1O[C@H](O[C@H]2[C@H](O)[C@@H](O)[C@@H](O)[C@H](O)[C@@H]2O)[C@@H](N)C[C@@H]1NC(=N)C(=O)O [kasugamycin] | > 100 µg/mL | > 100 µg/mL | > 100 µg/mL | > 100 µg/mL | > 100 µg/mL | > 100 µg/mL |  | > 100 µg/mL | > 100 µg/mL | > 100 µg/mL |  | > 100 µg/mL | > 100 µg/mL | > 100 µg/mL | > 100 µg/mL | > 100 µg/mL | 25 µg/mL (≈ 65.9 µM) | > 100 µg/mL | > 100 µg/mL |  | 
